Laboratory results as given in ChEMBL document CHEMBL4118173, “Discovery of benzimidazole derivatives as orally active renin inhibitors: Optimization of 3,5-disubstituted piperidine to improve pharmacokinetic profile” (Bioorg Med Chem, 2018).
Numbering of substitutions follows the chain as printed. Calls of active or inactive are those of the source. The rule behind the calls is not given here.

Experiments:
Renin [1] = biological target: T1, Renin (Homo sapiens, UniProt P00797)
T1 sequence (P00797 whole entry): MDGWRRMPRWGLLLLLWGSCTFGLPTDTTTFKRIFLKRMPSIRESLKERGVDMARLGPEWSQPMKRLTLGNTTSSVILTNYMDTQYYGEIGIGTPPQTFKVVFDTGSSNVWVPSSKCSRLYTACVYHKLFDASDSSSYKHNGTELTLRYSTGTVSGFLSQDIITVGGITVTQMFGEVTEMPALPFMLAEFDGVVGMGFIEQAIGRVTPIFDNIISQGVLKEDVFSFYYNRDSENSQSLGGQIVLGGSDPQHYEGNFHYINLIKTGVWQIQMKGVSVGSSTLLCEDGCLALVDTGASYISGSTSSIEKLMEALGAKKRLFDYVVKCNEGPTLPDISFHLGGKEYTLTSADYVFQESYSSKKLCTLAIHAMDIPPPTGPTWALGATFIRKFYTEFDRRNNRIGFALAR
Description: Inhibition of recombinant human renin using angiotensinogen as substrate pretreated for 10 mins followed by substrate addition measured after 30 mins in absence of human serum albumin by ELISA

Renin [2] = biological target: T1, Renin; remark: listed apart in the source
Description: Inhibition of recombinant human renin using angiotensinogen as substrate pretreated for 10 mins followed by substrate addition measured after 30 mins in presence of human serum albumin by ELISA

Renin [3] = biological target: T1, Renin; remark: listed apart in the source
Description: Inhibition of renin in human plasma by radioimmunoassay

in vivo [4] = conditions: rat, iv, 0.1 mg/kg
in vivo [5] = conditions: rat, iv
Description: Clearance in rat at 0.1 mg/kg, iv or 1 mg/kg, po administered as cassette dose by LC-MS/MS analysis

in vivo [6] = conditions: rat, po, 1 mg/kg
physchem = conditions: 1-octanol/aqueous buffer, pH 7.4
Description: 1-octanol/aqueous buffer partition coefficient, log D of the compound at pH 7.4 by UV-vis/HPLC method

in vitro = conditions: PAMPA, pH 7.4
Description: Permeability of the compound at pH 7.4 buffer after 3 hrs by PAMPA

[7] = AUC in cynomolgus monkey at 0.1 mg/kg, iv administered as cassette dose by LC-MS/MS analysis; assay type: ADME, organism-based, Macaca fascicularis; conditions: in vivo
[8] = Clearance in cynomolgus monkey at 0.1 mg/kg, iv or 1 mg/kg, po administered as cassette dose by LC-MS/MS analysis; assay type: ADME, organism-based, Macaca fascicularis; conditions: in vivo
[9] = AUC in cynomolgus monkey at 1 mg/kg, po administered as cassette dose by LC-MS/MS analysis; assay type: ADME, organism-based, Macaca fascicularis; conditions: in vivo
[10] = Cmax in cynomolgus monkey at 0.1 mg/kg, iv or 1 mg/kg, po administered as cassette dose by LC-MS/MS analysis; assay type: ADME, organism-based, Macaca fascicularis; conditions: in vivo
[11] = Tmax in cynomolgus monkey at 0.1 mg/kg, iv or 1 mg/kg, po administered as cassette dose by LC-MS/MS analysis; assay type: ADME, organism-based, Macaca fascicularis; conditions: in vivo
[12] = Oral bioavailability in cynomolgus monkey at 1 mg/kg administered as cassette dose by LC-MS/MS analysis; assay type: ADME, organism-based, Macaca fascicularis; conditions: in vivo
Cynomolgus monkey [13] = conditions: Macaca fascicularis; Plasma; 15 mg/kg
Cynomolgus monkey [14] = conditions: Macaca fascicularis; Plasma; 5 to 15 mg/kg
Rattus norvegicus [15] = assay: Metabolic stability in rat at 0.1 mg/kg, iv or 1 mg/kg, po administered as cassette dose by LC-MS/MS analysis; assay type: ADME, organism-based; conditions: in vivo
Rattus norvegicus [16] = species: Rattus norvegicus; conditions: in vivo, po, 1 mg/kg
in vivo [17] = conditions: rat, po, 1 mg/kg; remark: listed apart in the source
Cynomolgus monkey [18] = assay: In vivo inhibition of plasma renin in po dosed cynomolgus monkey measured at 4 and 24 hrs post dose by radioimmunoassay; assay type: functional, organism-based; conditions: Macaca fascicularis
Renin [19] = biological target: T2, Renin (Rattus norvegicus, UniProt P08424)
T2 sequence (P08424 whole entry): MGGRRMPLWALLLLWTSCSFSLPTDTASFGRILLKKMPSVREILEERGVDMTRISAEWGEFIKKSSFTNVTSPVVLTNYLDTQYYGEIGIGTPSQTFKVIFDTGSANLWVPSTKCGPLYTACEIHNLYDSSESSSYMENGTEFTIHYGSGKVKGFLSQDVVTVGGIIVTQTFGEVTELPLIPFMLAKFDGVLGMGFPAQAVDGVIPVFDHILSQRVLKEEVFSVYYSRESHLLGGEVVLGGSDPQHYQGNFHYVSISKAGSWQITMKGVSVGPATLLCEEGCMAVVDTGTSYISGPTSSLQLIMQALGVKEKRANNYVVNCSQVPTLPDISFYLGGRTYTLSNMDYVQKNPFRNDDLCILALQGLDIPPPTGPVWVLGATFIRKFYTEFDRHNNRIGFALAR
Description: Inhibition of renin in rat plasma

Renin [20] = biological target: T3, Renin (Macaca mulatta, UniProt Q6DLW5)
T3 sequence (Q6DLW5 whole entry): T1 sequence (P00797 whole entry) with T68A, I214L, S235A, Q270P, R406H
Description: Inhibition of renin in monkey plasma

Row | IC50 (Renin [1]) [nM] | IC50 (Renin [2]) [nM] | IC50 (Renin [3]) [nM] | AUC (in vivo [4]) [ng·h/mL] | clearance (in vivo [5]) [mL/min/kg] | bioavailability (in vivo [6]) [%] | logD (physchem) | Papp at 3 h (in vitro) [×10⁻⁶ cm/s] | AUC (in vivo [17]) [ng·h/mL] | SMILES | further results
1 | 2 | 3.6 |  |  |  |  | 2.73 |  |  | COCCCCn1nc(C(C)(C)C)cc1C(=O)N(CC(C)C)[C@@H]1CNC[C@H](C(=O)N2CCOCC2)C1 | 
2 |  |  |  | 42 |  |  | 4.77 | 43.5 |  | CCCCCCc1nc(C(C)(C)C)ncc1C(=O)N(CC(C)C)[C@@H]1CNC[C@H](C(=O)N2CCOCC2)C1 | AUC (Rattus norvegicus [16]): 20.9 ng·h/mL
3 | 1.1 | 1.2 | 1.3 | 20.8 | 80.4 | 0.3 | 1.78 | 7.8 | 0.7 | COCCCCc1c(C(=O)N(CC(C)C)[C@@H]2CNC[C@H](C(=O)N3CCOCC3)C2)cnn1-c1ccccc1 | 
4 | 0.2 | 0.64 | 5.4 | 27.3 | 62.4 | < 1 | 4.45 | 25.2 |  | CCCCCNc1nc(C(C)(C)C)ncc1C(=O)N(CC(C)C)[C@@H]1CNC[C@H](C(=O)N2CCOCC2)C1 | 
5 | 0.63 | 0.66 | 2.9 | 43.9 | 38.9 | 17 | 1.71 | 27.4 | 74.2 | CC(C)CN(C(=O)c1nc2ccccc2n1C)[C@@H]1CNC[C@H](C(=O)N2CCOCC2)C1 | 
6 | 1.4 | 1.8 | 1.2 | 15.3 | 112 | < 1 | 1.79 | 11.6 |  | COCCCCn1c(C(=O)N(CC(C)C)[C@@H]2CNC[C@H](C(=O)N3CCOCC3)C2)nnc1-c1ccccc1 | 
7 | 1 | 0.65 | 0.4 | 18.4 | 92.4 | 1.9 | 1.94 | 36.9 | 3.5 | COCCCCc1c(C(=O)N(CC(C)C)[C@@H]2CNC[C@H](C(=O)N3CCOCC3)C2)nnn1-c1ccccc1 | 
8 | 48 | 35 |  |  |  |  | 2.12 |  |  | COCCCCn1c(C(=O)N(CC(C)C)[C@@H]2CNC[C@H](C(=O)N3CCOCC3)C2)cnc1C(C)(C)C | 
9 | 0.76 | 0.59 | 4 | 50.7 | 34.2 | 8.2 | 1.74 | 6 | 41.7 | CC(C)CN(C(=O)c1nc2ccccc2[nH]1)[C@@H]1CNC[C@H](C(=O)N2CCOCC2)C1 | 
10 | 4.4 | 3.3 | 2.8 | 17.6 | 96.7 | < 1 | 2.03 | 7.2 |  | COCCCCn1c(C(=O)N(CC(C)C)[C@@H]2CNC[C@H](C(=O)N3CCOCC3)C2)cnc1-c1ccccc1 | 
11 | 0.9 | 1.6 | 9.1 | 52.1 | 33 | 12 | 2 | 32.4 | 59.7 | COCCCCn1c(C(=O)N(CC(C)C)[C@H]2CCCNC2)nc2ccccc21 | 
12 | 1.6 | 2.1 | 1.1 | 43.5 | 39 | 2.2 | 1.54 | 6.3 | 9.5 | COCCCCc1c(C(=O)N(CC(C)C)[C@@H]2CNC[C@H](C(=O)N3CCOCC3)C2)nc2ccccn12 | 
13 | > 100 | > 100 |  |  |  |  | 2.81 | 27.2 |  | COCCCOc1nc(C(C)(C)C)ncc1C(=O)N(CC(C)C)[C@@H]1CNC[C@H](C(=O)N2CCOCC2)C1 | 

Second part, the compound before the results:

Row | SMILES | IC50 (Renin [1]) [nM] | IC50 (Renin [2]) [nM] | IC50 (Renin [3]) [nM] | AUC (in vivo [4]) [ng·h/mL] | clearance (in vivo [5]) [mL/min/kg] | bioavailability (in vivo [6]) [%] | logD (physchem) | Papp at 3 h (in vitro) [×10⁻⁶ cm/s] | AUC (in vivo [17]) [ng·h/mL] | further results
14 | COCCCCc1c(C(=O)N(CC(C)C)[C@@H]2CNC[C@H](C(=O)N3CCOCC3)C2)nc2n1CCCC2 | 2.2 | 2.7 | 3.3 |  |  |  |  |  |  | 
15 | COCCCCc1c(C(=O)N(CC(C)C)[C@@H]2CNC[C@H](C(=O)N3CCOCC3)C2)ncn1-c1ccccc1 | 0.83 | 1.1 | 1.2 | 13.3 | 127 | < 1 | 1.84 | 7.8 |  | 
16 | COCCCOc1cc(C[C@@H](C[C@H](N)[C@@H](O)C[C@H](C(=O)NCC(C)(C)C(N)=O)C(C)C)C(C)C)ccc1OC |  |  |  |  |  |  |  |  |  | AUC [7]: 501 ng·h/mL; clearance [8]: 3.37 mL/min/kg; AUC [9]: 25.9 ng·h/mL; Cmax [10]: 3.5 ng/mL; Tmax [11]: 3.33 h; bioavailability [12]: 0.6%; inhibition (Cynomolgus monkey [13]): Active; inhibition (Cynomolgus monkey [14]): Active
17 | COCCCNc1nc(C(C)(C)C)ncc1C(=O)N(CC(C)C)[C@@H]1CNC[C@H](C(=O)N2CCOCC2)C1 |  |  |  | 14.1 | 121 | < 1 | 2.99 | 39 |  | Stability (Rattus norvegicus [15]): Stable
18 | CCn1c(C(=O)N(CC(C)C)[C@@H]2CNC[C@H](C(=O)N3CCOCC3)C2)nc2ccccc21 | 0.66 | 0.89 | 1.3 | 43.4 | 38.5 | 14 | 1.79 | 24.2 | 58.9 | 
19 | COCCCCn1nc(-c2ccccc2)cc1C(=O)N(CC(C)C)[C@@H]1CNC[C@H](C(=O)N2CCOCC2)C1 | > 100 | > 100 |  |  |  |  | 2.68 |  |  | 
20 | COCCCCn1c(C(=O)N(CC(C)C)[C@@H]2CNC[C@H](CO)C2)nc2ccccc21 | 0.28 | 0.32 | 1.5 | 108 | 15.5 | 9.6 | 1.77 | 8.2 | 103 | 
21 | COCCCCn1c(C(=O)N(CC(C)C)[C@@H]2CNC[C@H](C(C)(C)O)C2)nc2ccccc21 | 0.72 | 1.5 | 2.6 |  |  |  | 1.98 | 20.2 |  | 
22 | COCCCCn1c(C(=O)N(CC(C)C)[C@@H]2CNC[C@H](C(=O)N3CCOCC3)C2)nc2ccccc21 |  |  |  | 68 | 25.9 | 14 | 2.11 | 34.5 | 92.2 | AUC [7]: 128 ng·h/mL; clearance [8]: 14.2 mL/min/kg; AUC [9]: 323 ng·h/mL; Cmax [10]: 29.1 ng/mL; Tmax [11]: 1.67 h; bioavailability [12]: 25%; inhibition (Cynomolgus monkey [18]): Dose-dependent effect; IC50 (Renin [19]): 310 nM; IC50 (Renin [20]): 1.5 nM
23 | CCn1c(C(=O)N(CC(C)C)[C@@H]2CNC[C@H](CO)C2)nc2ccccc21 | 16 | 21 | > 10 |  |  |  | 1.73 | 5.5 |  | 
24 | COCCCCn1c(C(=O)N(CC(C)C)[C@@H]2CNC[C@H](C(=O)N3CCOCC3)C2)ccc1-c1ccccc1 | 0.16 | 1.4 | 3.4 | 34.6 | 49.5 | 5.4 | 3.08 | 21.7 | 18.5 | 
